Results reported in ChEMBL document CHEMBL3352057, “Novel fluorinated pyrrolo[1,2-a]pyrazine-2,6-dione derivatives: synthesis and anticonvulsant evaluation in animal models of epilepsy” (Bioorg Med Chem, 2014).
The source made the active and inactive calls.

Assays:
Rattus norvegicus [1] = assay: Anticonvulsant activity in Sprague-Dawley rat assessed as protection against maximal electroshock-induced seizures at 30 mg/kg, ip measured after 4 hrs; assay type: functional, organism-based; parameters: dose 30 mg/kg
Rattus norvegicus [2] = assay: Anticonvulsant activity in Sprague-Dawley rat assessed as protection against maximal electroshock-induced seizures at 30 mg/kg, ip measured after 0.25 hr; assay type: functional, organism-based; parameters: dose 30 mg/kg
Rattus norvegicus [3] = assay: Neurotoxicity in MES Sprague-Dawley rat model at 30 mg/kg, po measured after 1 hr; assay type: toxicity, organism-based; parameters: dose 30 mg/kg, route oral; details: in vivo
Rattus norvegicus [4] = assay: Neurotoxicity in MES Sprague-Dawley rat model at 30 mg/kg, ip measured after 0.5 hr; assay type: toxicity, organism-based; parameters: dose 30 mg/kg, route intraperitoneal; details: in vivo
Rattus norvegicus [5] = assay: Neurotoxicity in MES Sprague-Dawley rat model at 30 mg/kg, po measured after 0.5 hr; assay type: toxicity, organism-based; parameters: dose 30 mg/kg, route oral; details: in vivo
Mus musculus [6] = assay: Anticonvulsant activity in albino CF1 mouse assessed as protection against 32 mA current-induced seizures at 100 mg/kg, ip measured after 0.5 hr; assay type: functional, organism-based; parameters: dose 100 mg/kg
Rattus norvegicus [7] = assay: Neurotoxicity in MES Sprague-Dawley rat model at 30 mg/kg, ip measured after 0.25 hr; assay type: toxicity, organism-based; parameters: dose 30 mg/kg, route intraperitoneal; details: in vivo
Rattus norvegicus [8] = assay: Anticonvulsant activity in Sprague-Dawley rat assessed as protection against maximal electroshock-induced seizures at 30 mg/kg, po measured after 1 hr; assay type: functional, organism-based; parameters: dose 30 mg/kg
Mus musculus [9] = assay: Neurotoxicity in 32 mA current-induced seizure albino CF1 mouse model at 100 mg/kg, ip measured after 0.5 hr; assay type: toxicity, organism-based; parameters: dose 100 mg/kg, route intraperitoneal; details: in vivo
Rattus norvegicus [10] = assay: Anticonvulsant activity in Sprague-Dawley rat assessed as protection against maximal electroshock-induced seizures at 30 mg/kg, ip measured after 2 hrs; assay type: functional, organism-based; parameters: dose 30 mg/kg
Rattus norvegicus [11] = assay: Anticonvulsant activity in Sprague-Dawley rat assessed as protection against maximal electroshock-induced seizures at 30 mg/kg, ip measured after 1 hr; assay type: functional, organism-based; parameters: dose 30 mg/kg
Mus musculus [12] = assay: Anticonvulsant activity in albino CF1 mouse assessed as protection against maximal electroshock-induced seizures at 100 mg/kg, ip measured after 4 hrs; assay type: functional, organism-based; parameters: dose 100 mg/kg
Mus musculus [13] = assay: Neurotoxicity in albino CF1 mouse at 100 mg/kg, ip measured after 4 hrs; assay type: toxicity, organism-based; parameters: dose 100 mg/kg, route intraperitoneal; details: in vivo
Rattus norvegicus [14] = assay: Neurotoxicity in MES Sprague-Dawley rat model at 30 mg/kg, po measured after 2 hrs; assay type: toxicity, organism-based; parameters: dose 30 mg/kg, route oral; details: in vivo
Mus musculus [15] = assay: Neurotoxicity in albino CF1 mouse at 100 mg/kg, ip measured after 0.5 hr; assay type: toxicity, organism-based; parameters: dose 100 mg/kg, route intraperitoneal; details: in vivo
Rattus norvegicus [16] = assay: Neurotoxicity in MES Sprague-Dawley rat model at 30 mg/kg, ip measured after 2 hrs; assay type: toxicity, organism-based; parameters: dose 30 mg/kg, route intraperitoneal; details: in vivo
Rattus norvegicus [17] = assay: Neurotoxicity in MES Sprague-Dawley rat model at 30 mg/kg, po measured after 0.25 hr; assay type: toxicity, organism-based; parameters: dose 30 mg/kg, route oral; details: in vivo
Mus musculus [18] = assay: Anticonvulsant activity in albino CF1 mouse assessed as protection against 32 mA current-induced seizures at 100 mg/kg, ip measured after 2 hrs; assay type: functional, organism-based; parameters: dose 100 mg/kg
Rattus norvegicus [19] = assay: Anticonvulsant activity in Sprague-Dawley rat assessed as protection against maximal electroshock-induced seizures at 30 mg/kg, po measured after 4 hrs; assay type: functional, organism-based; parameters: dose 30 mg/kg
Mus musculus [20] = assay: Anticonvulsant activity in albino CF1 mouse assessed as protection against maximal electroshock-induced seizures at 100 mg/kg, ip measured after 0.5 hr; assay type: functional, organism-based; parameters: dose 100 mg/kg
Rattus norvegicus [21] = assay: Anticonvulsant activity in Sprague-Dawley rat assessed as protection against maximal electroshock-induced seizures at 30 mg/kg, po measured after 0.5 hr; assay type: functional, organism-based; parameters: dose 30 mg/kg
Rattus norvegicus [22] = assay: Anticonvulsant activity in Sprague-Dawley rat assessed as protection against maximal electroshock-induced seizures at 30 mg/kg, po measured after 2 hrs; assay type: functional, organism-based; parameters: dose 30 mg/kg
Rattus norvegicus [23] = assay: Anticonvulsant activity in Sprague-Dawley rat assessed as protection against maximal electroshock-induced seizures at 30 mg/kg, po measured after 0.25 hr; assay type: functional, organism-based; parameters: dose 30 mg/kg
Rattus norvegicus [24] = assay: Anticonvulsant activity in Sprague-Dawley rat assessed as protection against maximal electroshock-induced seizures at 30 mg/kg, ip measured after 0.5 hr; assay type: functional, organism-based; parameters: dose 30 mg/kg
Mus musculus [25] = assay: Neurotoxicity in 32 mA current-induced seizure albino CF1 mouse model at 100 mg/kg, ip measured after 2 hrs; assay type: toxicity, organism-based; parameters: dose 100 mg/kg, route intraperitoneal; details: in vivo
Rattus norvegicus [26] = assay: Neurotoxicity in MES Sprague-Dawley rat model at 30 mg/kg, ip measured after 1 hr; assay type: toxicity, organism-based; parameters: dose 30 mg/kg, route intraperitoneal; details: in vivo
Rattus norvegicus [27] = assay: Neurotoxicity in MES Sprague-Dawley rat model at 30 mg/kg, ip measured after 4 hrs; assay type: toxicity, organism-based; parameters: dose 30 mg/kg, route intraperitoneal; details: in vivo
Rattus norvegicus [28] = assay: Neurotoxicity in MES Sprague-Dawley rat model at 30 mg/kg, po measured after 4 hrs; assay type: toxicity, organism-based; parameters: dose 30 mg/kg, route oral; details: in vivo
Mus musculus [29] = assay: Anticonvulsant activity in albino CF1 mouse assessed as protection against 32 mA current-induced seizures at 100 mg/kg, ip measured after 0.25 hr; assay type: functional, organism-based; parameters: dose 100 mg/kg
Mus musculus [30] = assay: Anticonvulsant activity in albino CF1 mouse assessed as protection against subcutaneous metrazol-induced seizures at 100 mg/kg, ip measured after 0.5 hr; assay type: functional, organism-based; parameters: dose 100 mg/kg
Mus musculus [31] = assay: Anticonvulsant activity in albino CF1 mouse assessed as protection against maximal electroshock-induced seizures at 100 mg/kg, ip measured after 0.25 hr; assay type: functional, organism-based; parameters: dose 100 mg/kg
Mus musculus [32] = assay: Anticonvulsant activity in albino CF1 mouse assessed as protection against subcutaneous metrazol-induced seizures at 100 mg/kg, ip measured after 4 hrs; assay type: functional, organism-based; parameters: dose 100 mg/kg
Mus musculus [33] = assay: Neurotoxicity in albino CF1 mouse at 100 mg/kg, ip measured after 0.25 hr; assay type: toxicity, organism-based; parameters: dose 100 mg/kg, route intraperitoneal; details: in vivo
Mus musculus [34] = assay: Neurotoxicity in 32 mA current-induced seizure albino CF1 mouse model at 100 mg/kg, ip measured after 1 hr; assay type: toxicity, organism-based; parameters: dose 100 mg/kg, route intraperitoneal; details: in vivo
Mus musculus [35] = assay: Anticonvulsant activity in albino CF1 mouse assessed as protection against 32 mA current-induced seizures at 100 mg/kg, ip measured after 4 hrs; assay type: functional, organism-based; parameters: dose 100 mg/kg
Mus musculus [36] = assay: Neurotoxicity in 32 mA current-induced seizure albino CF1 mouse model at 100 mg/kg, ip measured after 0.25 hr; assay type: toxicity, organism-based; parameters: dose 100 mg/kg, route intraperitoneal; details: in vivo
Mus musculus [37] = assay: Neurotoxicity in 32 mA current-induced seizure albino CF1 mouse model at 100 mg/kg, ip measured after 4 hrs; assay type: toxicity, organism-based; parameters: dose 100 mg/kg, route intraperitoneal; details: in vivo
Mus musculus [38] = assay: Anticonvulsant activity in albino CF1 mouse assessed as protection against subcutaneous metrazol-induced seizures at 100 mg/kg, ip measured after 1 hr; assay type: functional, organism-based; parameters: dose 100 mg/kg
Mus musculus [39] = assay: Anticonvulsant activity in albino CF1 mouse assessed as protection against subcutaneous metrazol-induced seizures at 100 mg/kg, ip measured after 0.25 hr; assay type: functional, organism-based; parameters: dose 100 mg/kg
Mus musculus [40] = assay: Anticonvulsant activity in albino CF1 mouse assessed as protection against maximal electroshock-induced seizures at 100 mg/kg, ip measured after 1 hr; assay type: functional, organism-based; parameters: dose 100 mg/kg
Mus musculus [41] = assay: Neurotoxicity in albino CF1 mouse at 100 mg/kg, ip measured after 1 hr; assay type: toxicity, organism-based; parameters: dose 100 mg/kg, route intraperitoneal; details: in vivo
Mus musculus [42] = assay: Anticonvulsant activity in albino CF1 mouse assessed as protection against 32 mA current-induced seizures at 100 mg/kg, ip measured after 1 hr; assay type: functional, organism-based; parameters: dose 100 mg/kg

Measured: Activity

Cl.O=C1NC(=O)[C@@H]2C[C@@H](O)CN2C1c1cccc(C(F)(F)F)c1 (mixture of isomers)
Toxic: Mus musculus [9] | Mus musculus [15]
inactive: Rattus norvegicus [1] | Rattus norvegicus [2] | Rattus norvegicus [8] | Rattus norvegicus [10] | Rattus norvegicus [11] | Mus musculus [12] | Mus musculus [18] | Rattus norvegicus [19] | Rattus norvegicus [21] | Rattus norvegicus [22] | Rattus norvegicus [23] | Rattus norvegicus [24]
active: Mus musculus [6] | Mus musculus [20]
Non-toxic: Rattus norvegicus [3] | Rattus norvegicus [4] | Rattus norvegicus [5] | Rattus norvegicus [7] | Mus musculus [13] | Rattus norvegicus [14] | Rattus norvegicus [16] | Rattus norvegicus [17] | Mus musculus [25] | Rattus norvegicus [26] | Rattus norvegicus [27] | Rattus norvegicus [28]

O=C1NC(=O)[C@@H](c2cccc(C(F)(F)F)c2)N2CCCC[C@H]12
inactive: Rattus norvegicus [1] | Mus musculus [30] | Mus musculus [31] | Rattus norvegicus [2] | Mus musculus [32] | Rattus norvegicus [8] | Rattus norvegicus [10] | Mus musculus [35] | Rattus norvegicus [11] | Mus musculus [12] | Mus musculus [38] | Mus musculus [39] | Mus musculus [18] | Rattus norvegicus [19] | Mus musculus [20] | Rattus norvegicus [21] | Rattus norvegicus [22] | Rattus norvegicus [23] | Rattus norvegicus [24]
Non-toxic: Rattus norvegicus [3] | Mus musculus [33] | Mus musculus [34] | Rattus norvegicus [4] | Rattus norvegicus [5] | Rattus norvegicus [7] | Mus musculus [9] | Mus musculus [36] | Mus musculus [37] | Mus musculus [13] | Rattus norvegicus [14] | Mus musculus [15] | Rattus norvegicus [16] | Rattus norvegicus [17] | Mus musculus [25] | Mus musculus [41] | Rattus norvegicus [26] | Rattus norvegicus [27] | Rattus norvegicus [28]
active: Mus musculus [29] | Mus musculus [6] | Mus musculus [40] | Mus musculus [42]

O=C1NC(=O)[C@@H]2CCCN2[C@H]1c1ccccc1F
Toxic: Mus musculus [33]
active: Mus musculus [39] | Mus musculus [20]
Non-toxic: Rattus norvegicus [3] | Rattus norvegicus [4] | Rattus norvegicus [5] | Rattus norvegicus [7] | Mus musculus [13] | Rattus norvegicus [14] | Mus musculus [15] | Rattus norvegicus [16] | Rattus norvegicus [17] | Mus musculus [41] | Rattus norvegicus [26] | Rattus norvegicus [27] | Rattus norvegicus [28]
inactive: Rattus norvegicus [1] | Mus musculus [30] | Mus musculus [31] | Rattus norvegicus [2] | Mus musculus [32] | Rattus norvegicus [8] | Rattus norvegicus [10] | Rattus norvegicus [11] | Mus musculus [12] | Mus musculus [38] | Rattus norvegicus [19] | Rattus norvegicus [21] | Rattus norvegicus [22] | Rattus norvegicus [23] | Rattus norvegicus [24] | Mus musculus [40]
